Reference: patent US5376688A, “Enhanced solubility pharmaceutical solutions” (R. P. Scherer Corporation, priority 1992, dated 1994)
One block for each molecule: values may come before it. Where a SMILES comes first, the peptide text is derived from it.

Columns and labels:
[1] = Saturated aspartame solutions: solubility with potassium hydroxide; assay type: physicochemical; conditions: for ASPARTAME SOLUBILITY (%): saturated solution
Procedure: The following saturated aspartame solutions were prepared, using aspartame as a model of an amphoteric pharmaceutical agent. These solutions contain the indicated amount of aspartame, the indicated solvent and the indicated amount of potassium hydroxide. […] The solutions were suitable for filling into soft gelatin capsules.

[2] = Saturated aspartame solutions: solubility with hydrochloric acid; assay type: physicochemical; conditions: for ASPARTAME SOLUBILITY (%): saturated solution
Excerpt: The following saturated aspartame solutions were made using aspartame for a model for an amphoteric pharmaceutical agent. […] These solutions are suitable for filling into soft gelatin capsules.

[3] = Saturated ibuprofen solutions: solubility (weight percent) with potassium hydroxide

ASPARTAME SOLUBILITY (%) ([1]; solvent LABRASOL, mole equivalent hydroxide 0): 0.30%
ASPARTAME SOLUBILITY (%) ([1]; solvent LABRASOL, mole equivalent hydroxide (KOH) 0.50): 0.60%
ASPARTAME SOLUBILITY (%) ([1]; solvent PLURONIC L62, mole equivalent hydroxide 0): 0.045%
ASPARTAME SOLUBILITY (%) ([1]; solvent PLURONIC L62, mole equivalent hydroxide (KOH) 0.50): 0.045%
ASPARTAME SOLUBILITY (%) ([1]; solvent TRANSCUTOL, mole equivalent hydroxide 0): 0.43%
ASPARTAME SOLUBILITY (%) ([1]; solvent TRANSCUTOL, mole equivalent hydroxide (KOH) 0.50): 0.68%
enhanced solubility (in words) ([2]; hydrochloric acid, each solvent): enhanced solubility was noted
ASPARTAME SOLUBILITY (%) ([2]; solvent LABRASOL, mole equivalent acid 0): 0.30%
ASPARTAME SOLUBILITY (%) ([2]; solvent LABRASOL, mole equivalent acid (HCl) 50 (so in the source)): 0.50%
ASPARTAME SOLUBILITY (%) ([2]; solvent PLURONIC L62, mole equivalent acid 0): 0.045%
ASPARTAME SOLUBILITY (%) ([2]; solvent PLURONIC L62, mole equivalent acid (HCl) 50 (so in the source)): 0.095%
ASPARTAME SOLUBILITY (%) ([2]; solvent TRANSCUTOL, mole equivalent acid 0): 0.43%
ASPARTAME SOLUBILITY (%) ([2]; solvent TRANSCUTOL, mole equivalent acid (HCl) 50 (so in the source)): 0.91%
SMILES: COC(=O)[C@H](Cc1ccccc1)NC(=O)[C@@H](N)CC(=O)O [aspartame] (H-Asp-Phe-OMe)
enhanced solubility (in words) ([1]; potassium hydroxide, except for Pluronic L62): showed enhanced solubility in the presence of the hydroxide species

IBUPROFEN SOLUBILITY (%) ([3]; solvent LABRASOL, mole equivalent hydroxide 0, saturated solution): 25.0%
IBUPROFEN SOLUBILITY (%) ([3]; solvent LABRASOL, mole equivalent hydroxide (KOH) 0.25, saturated solution): 40.0%
IBUPROFEN SOLUBILITY (%) ([3]; solvent LABRASOL, mole equivalent hydroxide (KOH) 0.5, saturated solution): 45.0%
IBUPROFEN SOLUBILITY (%) ([3]; solvent LABRASOL, mole equivalent hydroxide (KOH) 0.75, saturated solution): 42.5%
IBUPROFEN SOLUBILITY (%) ([3]; solvent LABRASOL, mole equivalent hydroxide (KOH) 1.0, saturated solution): 40.0%
IBUPROFEN SOLUBILITY (%) ([3]; solvent PLUROL OLEIQUE, mole equivalent hydroxide 0, saturated solution): 15.0%
IBUPROFEN SOLUBILITY (%) ([3]; solvent PLUROL OLEIQUE, mole equivalent hydroxide (KOH) 0.5, saturated solution): 30.0%
IBUPROFEN SOLUBILITY (%) ([3]; solvent PLURONIC L62, mole equivalent hydroxide 0, saturated solution): 10.0%
IBUPROFEN SOLUBILITY (%) ([3]; solvent PLURONIC L62, mole equivalent hydroxide (KOH) 0.25, saturated solution): 15.0%
IBUPROFEN SOLUBILITY (%) ([3]; solvent PLURONIC L62, mole equivalent hydroxide (KOH) 0.5, saturated solution): 20.0%
IBUPROFEN SOLUBILITY (%) ([3]; solvent PLURONIC L62, mole equivalent hydroxide (KOH) 0.75, saturated solution): 27.5%
IBUPROFEN SOLUBILITY (%) ([3]; solvent PLURONIC L62, mole equivalent hydroxide (KOH) 1.0, saturated solution): 30.0%
IBUPROFEN SOLUBILITY (%) ([3]; solvent TRANSCUTOL, mole equivalent hydroxide 0, saturated solution): 42.5%
IBUPROFEN SOLUBILITY (%) ([3]; solvent TRANSCUTOL, mole equivalent hydroxide (KOH) 0.25, saturated solution): 55.0%
IBUPROFEN SOLUBILITY (%) ([3]; solvent TRANSCUTOL, mole equivalent hydroxide (KOH) 0.5, saturated solution): 60.0%
IBUPROFEN SOLUBILITY (%) ([3]; solvent TRANSCUTOL, mole equivalent hydroxide (KOH) 0.75, saturated solution): 52.5%
IBUPROFEN SOLUBILITY (%) ([3]; solvent TRANSCUTOL, mole equivalent hydroxide (KOH) 1.0, saturated solution): 52.5%
SMILES: CC(C)Cc1ccc(C(C)C(=O)O)cc1 (stereo not shown) [ibuprofen]
